The values that follow come from ChEMBL document CHEMBL3351222, “Novel multi-targeting anthra[2,3-b]thiophene-5,10-diones with guanidine-containing side chains: interaction with telomeric G-quadruplex, inhibition of telomerase and topoisomerase I and cytotoxic properties” (Eur J Med Chem, 2014).

The target of data set [1] is T1, Telomerase reverse transcriptase (Homo sapiens, UniProt O14746). Nature of the data set: Inhibition of human telomerase transfected in human HEK293T cells assessed as DNA extension using 5'-d(AATCCGTCGAGCAGAGTT)-3' substrate. The data set is classed as cell-based. Conditions: hek-293t.
Data set [2] deals with L1210. The data set is described as follows: Drug uptake in mouse L1210 cells at 1 uM after 3 hrs. Format: ADME, cell-based. Conditions: l1210, 3 h.
The species named for data set [3] is Homo sapiens. Nature of the data set: Binding affinity to human telomeric G-quadruplex TelQ22-DA DNA assessed as change in melting temperature by FRET assay.
For data set [4], the species on record is Homo sapiens. The data set is described as follows: Binding affinity to human telomeric G-quadruplex TelQ22-DA DNA at 65 degC by FRET melting assay.
The subject of data set [5] is L1210. Nature of the data set: Cytotoxicity against mouse L1210 cells after 48 hrs by trypan blue assay. Format: functional, cell-based. Conditions: L1210, 48 h.
For data set [6], the system named is CCRF-CEM. The data set is described as follows: Cytotoxicity against human CEM cells after 48 hrs by trypan blue assay. Format: functional, cell-based.
Data set [7] relates to L1210. Nature of the data set: Drug uptake in mouse L1210 cells at 1 uM after 15 mins. Format: ADME, cell-based. Conditions: l1210, 0.25 h.
Data set [8] has as its target T2, DNA topoisomerase 1 (Homo sapiens) (UniProt P11387).
T2 sequence (whole entry): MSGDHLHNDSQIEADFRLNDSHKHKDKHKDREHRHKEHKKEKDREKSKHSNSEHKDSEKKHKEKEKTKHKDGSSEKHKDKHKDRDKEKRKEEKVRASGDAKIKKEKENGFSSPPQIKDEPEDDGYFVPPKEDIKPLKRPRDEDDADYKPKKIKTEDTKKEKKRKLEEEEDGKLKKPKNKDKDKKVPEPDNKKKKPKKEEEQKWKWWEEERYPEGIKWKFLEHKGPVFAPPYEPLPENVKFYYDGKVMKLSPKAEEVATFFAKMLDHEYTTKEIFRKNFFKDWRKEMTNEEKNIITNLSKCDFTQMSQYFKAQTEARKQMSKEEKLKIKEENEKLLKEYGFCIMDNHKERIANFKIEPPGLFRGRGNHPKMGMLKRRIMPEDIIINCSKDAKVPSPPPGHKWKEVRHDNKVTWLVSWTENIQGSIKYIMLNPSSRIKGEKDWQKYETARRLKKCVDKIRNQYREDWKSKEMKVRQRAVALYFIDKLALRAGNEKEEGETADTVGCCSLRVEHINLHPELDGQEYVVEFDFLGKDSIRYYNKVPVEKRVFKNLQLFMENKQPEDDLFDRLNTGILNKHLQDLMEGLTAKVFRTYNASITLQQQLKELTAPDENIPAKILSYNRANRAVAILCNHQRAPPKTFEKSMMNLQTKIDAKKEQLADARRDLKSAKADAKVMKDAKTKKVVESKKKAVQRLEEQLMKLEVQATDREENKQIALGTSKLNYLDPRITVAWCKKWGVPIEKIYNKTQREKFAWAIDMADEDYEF
Nature of the data set: Inhibition of topoisomerase 1 (unknown origin)-mediated relaxation of supercoiled pBR322 at 1 uM after 30 mins by agarose gel electrophoresis.

Data set [9] addresses T1, Telomerase reverse transcriptase. Nature of the data set: Inhibition of human telomerase transfected in human HEK293T cells assessed as DNA extension using 5'-d(AATCCGTCGAGCAGAGTT)-3' substrate by Real-time quantitative telomeric repeat amplification protocol. The data set is classed as cell-based. The following applies: hek-293t.
The species named for data set [10] is Homo sapiens. The data set is described as follows: Binding affinity to human telomeric G-quadruplex TelQ22-DA DNA assessed as interaction with compound at 25 degC by isothermal titration calorimetry.
For data set [11], the species on record is Homo sapiens. The data set is described as follows: Binding affinity to human telomeric G-quadruplex TelQ24 (5'-d(TTAGGG)4)-3') DNA at 25 degC by fluorescent intercalator displacement assay.

pIC50: −log10 of the molar value. Activity calls are given as the source filed them. No cut-off for these calls is given here.

T1 sequence (O14746 whole entry): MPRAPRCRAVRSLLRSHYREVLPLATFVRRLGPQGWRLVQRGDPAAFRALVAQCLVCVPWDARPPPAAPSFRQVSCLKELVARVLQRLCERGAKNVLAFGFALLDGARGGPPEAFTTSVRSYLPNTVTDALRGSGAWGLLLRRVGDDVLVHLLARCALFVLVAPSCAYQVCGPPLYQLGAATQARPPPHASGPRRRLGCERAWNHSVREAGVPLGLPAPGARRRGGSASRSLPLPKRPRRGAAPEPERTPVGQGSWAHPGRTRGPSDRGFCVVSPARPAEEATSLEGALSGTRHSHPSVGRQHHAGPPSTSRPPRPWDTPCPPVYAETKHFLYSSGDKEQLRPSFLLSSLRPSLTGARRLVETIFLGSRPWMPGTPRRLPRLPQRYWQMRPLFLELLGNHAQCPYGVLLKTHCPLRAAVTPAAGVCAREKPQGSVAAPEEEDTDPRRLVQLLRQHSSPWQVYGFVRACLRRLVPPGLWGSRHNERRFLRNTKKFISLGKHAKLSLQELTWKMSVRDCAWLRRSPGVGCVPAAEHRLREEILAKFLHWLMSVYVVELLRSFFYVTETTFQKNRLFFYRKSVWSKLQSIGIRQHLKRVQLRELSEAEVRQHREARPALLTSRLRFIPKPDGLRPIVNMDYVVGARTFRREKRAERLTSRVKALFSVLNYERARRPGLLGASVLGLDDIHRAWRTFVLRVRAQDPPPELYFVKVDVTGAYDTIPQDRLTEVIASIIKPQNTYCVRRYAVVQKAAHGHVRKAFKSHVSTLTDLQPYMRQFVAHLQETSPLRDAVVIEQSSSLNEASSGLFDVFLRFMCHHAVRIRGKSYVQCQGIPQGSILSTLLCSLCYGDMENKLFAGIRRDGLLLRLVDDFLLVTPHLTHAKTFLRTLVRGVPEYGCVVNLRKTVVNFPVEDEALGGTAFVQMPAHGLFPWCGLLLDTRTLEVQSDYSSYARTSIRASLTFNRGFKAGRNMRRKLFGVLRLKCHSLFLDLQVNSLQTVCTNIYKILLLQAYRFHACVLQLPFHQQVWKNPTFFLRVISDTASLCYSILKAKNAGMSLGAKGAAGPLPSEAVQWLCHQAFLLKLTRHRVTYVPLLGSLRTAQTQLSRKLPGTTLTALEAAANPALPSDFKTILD

Turning to `Cl.N=C(N)NCCNc1c2c(c(NCCCN)c3sccc13)C(=O)c1ccccc1C2=O`, the pIC50 (in general, the negative decadic logarithm of the IC50, by convention in mol/L) in data set [1] is 6.15; in [5], 5.00; in data set [6], 5.00; in data set [9], 7.15. In addition, the Drug uptake entry in [2] and in data set [7] was “Active” each time. In data set [3], the ΔTm (in general, the change in melting temperature against a reference sample) was 10 °C. Besides, the Kb in data set [4] came out at 5 ×10⁶ /M; in data set [10], 3.7 ×10⁶ /M; in [11], 9 ×10⁶ /M. In addition, in data set [8], the inhibition entry is “Active”.

`CNCCNc1c2c(c(NCCNC)c3sccc13)C(=O)c1ccccc1C2=O.Cl`: the pIC50 in data set [1] is 6.15; in data set [5] it was 6.05; in [9], 6.30. Besides, the Drug uptake result in [2] and in [7] was “Active” in each case. Further, in data set [3], the ΔTm came out at 4.3 °C. Moreover, the results for the Kb in [4], in data set [10] and in [11] were 1.1 ×10⁶ /M, 1.6 ×10⁶ /M and 11 ×10⁶ /M, respectively. For the same compound, the inhibition entry in data set [8] is “Active”.

For `N=C(N)NCCNc1c2c(c(N)c3ccsc13)C(=O)c1ccccc1C2=O`, the pIC50 in data set [1] is 5.52; in data set [5], 4.66; in [6], 4.68; in data set [9], 6.30. In addition, the ΔTm in data set [3] stood at 1 °C. Further, the Kb in data set [4] turned out to be 0.1 ×10⁶ /M; in data set [10], 0.5 ×10⁶ /M; in [11], 2.1 ×10⁶ /M. Further, the inhibition result in data set [8] is “Active”.

Regarding `Cl.N=C(N)NCCNc1c2c(c(NCCNC(=N)N)c3sccc13)C(=O)c1ccccc1C2=O`, the pIC50 in data set [1] is 6.15; in data set [5], 4.70; in [6], 4.96; in data set [9] it was 7.10. Also, the Drug uptake entry in [2] and in data set [7] was “Active” each time. Further, the ΔTm in [3] was 12 °C. For the same compound, the Kb in data set [4] came to 7 ×10⁶ /M; in data set [11], 8 ×10⁶ /M. Further, the inhibition entry in [8] is “Active”.

As for `CC(=N)NCCNc1c2c(c(NCCNC(C)=N)c3sccc13)C(=O)c1ccccc1C2=O`, the negative-log IC50 (pIC50) is 6.33 in data set [1], 4.44 in data set [5], 4.41 in data set [6] and 6.52 in data set [9]. In data set [3], the ΔTm came out at 7 °C. For the same compound, the results for the Kb in data set [4], in [10] and in data set [11] were 2.4 ×10⁶ /M, 1.1 ×10⁶ /M and 8 ×10⁶ /M, respectively. The inhibition result in [8] is “Active”.

Regarding `CNCCNc1c2c(c(NCCNC(=N)N)c3sccc13)C(=O)c1ccccc1C2=O`, the pIC50 is 5.96 in data set [1], 4.80 in data set [5], 4.96 in data set [6] and 7.30 in data set [9]. The ΔTm in [3] came to 5.1 °C. In addition, the Kb in data set [4] was 1.5 ×10⁶ /M; in [10], 2.5 ×10⁶ /M; in data set [11], 4 ×10⁶ /M.

On to `N=C(N)NCCNc1c2c(c(NCCN)c3sccc13)C(=O)c1ccccc1C2=O`, for which the pIC50 in data set [1] was 6.10; in data set [5] it was 4.80; in [6], 5.15; in [9], 7.00. For the same compound, the ΔTm in [3] was found to be 5 °C. In addition, the Kb stood at 1.5 ×10⁶ /M in data set [4], 11 ×10⁶ /M in data set [10] and 12 ×10⁶ /M in data set [11]. For the same compound, the inhibition entry in data set [8] was “Active”.

Consider `Nc1c2c(c(N)c3sccc13)C(=O)c1ccccc1C2=O`, for which the pIC50 was 5.00 in [1], under 3.60 in [5], under 3.60 in [6] and 4.48 in data set [9]. Besides, the ΔTm in [3] stood at 0.1 °C. The figures for the Kb in data set [4] and in data set [11] were 0.01 ×10⁶ /M and 1.3 ×10⁶ /M, respectively.

In the case of `N=C(N)NCCNc1c2c(c(N)c3sccc13)C(=O)c1ccccc1C2=O`, the pIC50 in data set [1] was 5.70; in data set [5], 4.72; in data set [6], 4.80; in [9], 6.05. Moreover, the ΔTm in [3] came to 1 °C. The Kb in data set [4] amounted to 0.2 ×10⁶ /M; in [10], 0.6 ×10⁶ /M; in data set [11], 1.6 ×10⁶ /M.

As for `CNCCNc1c2c(c(NCCNC(=N)N)c3ccsc13)C(=O)c1ccccc1C2=O`, the pIC50 was 6.22 in data set [1], 4.64 in data set [5], 5.22 in data set [6] and 6.52 in data set [9]. In data set [3], the ΔTm came to 5.4 °C. Further, the Kb in data set [4] turned out to be 1.6 ×10⁶ /M; in data set [10], 4.9 ×10⁶ /M; in [11], 5.5 ×10⁶ /M. Moreover, the inhibition entry in data set [8] was “Active”.
